Assay results from patent publication US20170027973A1, “MODULARION OF INVARIANT NATURAL KILLER T CELLS IN THE TREATMENT OF SEPSIS” (LONDON HEALTH SCIENCES CENTRE RESEARCH INC., priority 2014, published 2017).

How the values were obtained:
Assay type in all cases: in vivo, mouse
[1] = system: splenocyte apoptosis; assay: Histology (H&E) and TUNEL staining of spleen, liver and omentum of septic B6 mice; details: for liver histopathology: among vehicle-, OCH- and KRN-treated mice; for lymphocytes in the omentum: histology; for histopathological scoring of degree of apoptosis in spleen: vehicle-treated: moderate
Text: FIG. 6: Histopathology of septic B6 mice treated with glycolipid agonists of iNKT cells. […] Lymphocyte migration to the omentum is also ameliorated in OCH-treated mice compared to vehicle- and KRN7000-treated mice. There were no histopathological differences in the liver. Images are representative of 4 animals per treatment group (size bar, 50 μm). (b) Histopathological scoring of the degree of apoptosis observed within the spleens of sham and septic B6 mice treated with vehicle, KRN7000, or OCH (n=4 animals per treatment group). Apoptosis was defined histologically by the presence of cell clusters with nuclear shrinkage (karyorrhexis), dark eosinophilic cytoplasm, intact plasma membrane, and relative paucity of surrounding inflammatory cells within the splenic follicles on H&E staining. Scores assigned to each animal by a blinded independent pathologist were as follows: 0 for complete absence of apoptosis; 1 for mild presence of apoptosis (0-15% per follicle); 2 for moderate apoptosis (16-30% per follicle); and 3 for severe apoptosis (31-45% per follicle). ***p<0.0001 by two-tailed Mann Whitney U test.
Liver, spleen, and omentum from sham B6 mice, and vehicle-, OCH-, and KRN7000-treated septic B6 mice were fixed in 10% neutral buffered formalin, embedded in paraffin, sectioned, and stained with H&E or subjected to TUNEL staining using a commercially available kit (Calbiochem). At least four stained sections per spleen from four animals per treatment group were examined and scored for apoptosis by a board-certified veterinary pathologist (Welch) who was blinded to the study design. Apoptosis was defined histologically by the presence of cell clusters with nuclear shrinkage (karyorrhexis), dark eosinophilic cytoplasm, intact plasma membrane, and relative paucity of surrounding inflammatory cells within the splenic follicles on H&E staining (34). Scores assigned to each animal were as follows: 0 for complete absence of apoptosis; 1 for mild presence of apoptosis (0-15% per follicle); 2 for moderate apoptosis (16-30% per follicle); and 3 for severe apoptosis (31-45% per follicle). Photomicrographs were taken using a Nikon DS-Fi1 digital camera using NIS-elements software.

[2] = system: inflammatory cytokines; assay: Multiplex cytokine quantification in sera and spleens of septic B6 mice
Protocol: FIG. 5: Cytokine levels in the sera and spleens of septic B6 mice. […] Concentrations of iNKT cell-specific cytokines are shown from sera (b) and spleen homogenates (c) of septic mice treated with vehicle, OCH, or KRN7000 (n=4-8 per group). Concentrations of cytokines are shown in pg/mL. *p<0.05, **p<0.01, ***p<0.001 by one-way ANOVA with post-hoc Tukey's multiple comparison test. Data are representative of at least three independent experiments.
Serum was analyzed by bead-based multiplex assay for 32 different cytokines, chemokines, and growth factors (Eve Technologies, Calgary, Alberta, Canada) including granulocyte-colony stimulating factor (G-CSF), granulocyte macrophage-colony stimulating factor (GM-CSF), interferon-gamma (IFN-γ), interleukin (IL)-1α, IL-1β, IL-2, IL-3, IL-4, IL-5, IL-6, IL-7, IL-9, IL-10, IL-12 (p40), IL-12 (p70), IL-13, IL-15, IL-17A, IP-10, keratinocyte chemo-attractant (KC), leukemia inhibitory factor (LIF), lipopolysaccharide-induced CXC chemokine (LIX), monocyte chemotactic protein (MCP)-1, monocyte-colony stimulating factor (M-CSF), monokine induced by gamma interferon (MIG), macrophage inflammatory protein (MIP)-1α, MIP-1β, MIP-2, Regulated on Activation, Normal T cell Expressed and Secreted (RANTES), tumour necrosis factor (TNF)-α, and vascular endothelial growth factor (VEGF). Multiplex data was visualized using a cytokine heat map that was generated using Matrix2png (33).

[3] = system: iNKT cells; assay: Flow cytometric detection of iNKT and T cells in spleen and liver of septic B6 mice; details: 24 hours
Protocol: FIG. 10: Effect of glycolipid agonists on cytokine expression in naïve B6 mice, and on iNKT cells in septic B6 mice. (a) Naïve B6 mice were injected i.p. with 4 μg OCH or KRN7000 or C20:2, and bled at 2, 12, and 24 hours post-injection. Serum samples were assayed for IL-4 and IFN-γ by enzyme-linked immunosorbent assay (ELISA). […] Vehicle-treated mice had cytokine levels below limits of detection. (b) B6 mice were given an intraperitoneal injection of fecal slurry (500 μL of a 90 mg/mL solution) to induce IAS and concomitantly treated with 4 μg of vehicle, OCH, or KRN7000. After 24 hours, mice were sacrificed, and cell suspensions from the liver and spleen were stained for the flow cytometric detection of CD1d tetramer+ TCRβ+iNKT cells.
To obtain hepatic lymphoid mononuclear cells (MNCs), mice were euthanized, and livers were flushed with sterile PBS before they were harvested and pressed through a 40-μm nylon mesh. The resulting homogenate was washed in cold PBS, resuspended in a 33.75% Percoll PLUS solution (GE Healthcare Bio-Sciences) and spun at 700×g for 12 min at room temperature. The pelleted cells were then treated with ACK lysis buffer to remove erythrocytes and washed in cold PBS prior to staining. To obtain omental lymphoid MNCs, the spleen, pancreas, and omentum were removed en-bloc and suspended in ice-cold PBS. The omenta floated above the spleen-pancreas complex and were removed and processed similar to the liver. Spleens were processed with a tissue homogenizer, and the resulting homogenate was washed in cold PBS. The pelleted cells were treated with ACK lysis buffer for 4 minutes to remove erythrocytes, and washed in cold PBS prior to staining.
Mouse hepatic, splenic, and omental cells (1×106), and human PBMCs (1×106) were washed with cold FACS buffer [PBS+2% fetal bovine serum (FBS)+0.1% sodium azide] and incubated with 5 μg/ml anti-mouse CD16/CD32 mAb (clone 2•4G2, Fc-block, eBiosciences) for 20 min on ice before staining with fluorescent monoclonal antibodies (mAbs) diluted in FACS buffer at 4° C. for 30-40 min. […]

[4] = KRN7000 compared to OCH-treated group

SMILES	liver histopathology [1]	lymphocytes in the omentum [1]	histopathological scoring of degree of apoptosis in spleen [1]	spleen IFN-γ [2, 4]	spleen IL-3 [2, 4]	spleen IL-4 [2, 4]	spleen IL-17 [2, 4]	spleen TNF-α [2, 4]	detection of iNKT cells versus OCH treatment [3]	detection of iNKT cells versus vehicle [3]	apoptotic cells within the spleen (H&E, TUNEL) ([1]; compared to vehicle- and KRN7000-treated mice)	serum mean concentration of IL-17 ([2]; OCH compared to KRN7000-treated)	serum concentration of IL-13 ([2]; compared to KRN7000-treated and vehicle-treated)
CCCCCCCCCCCCCCCCCCCCCCCCCC(=O)N[C@@H](CO[C@H]1O[C@H](CO)[C@H](O)[C@H](O)[C@H]1O)[C@H](O)[C@H](O)CCCCCCCCCCCCCC [KRN7000, reference compound]	did not observe overt differences	significant increase	severe (3 for severe apoptosis (31-45% per follicle))	significantly elevated	significantly elevated	significantly elevated	significantly elevated	significantly elevated	significantly lower	significantly reduced			
CCCCCCCCCCCCCCCCCCCCCCCC(=O)N[C@@H](COC1OC(CO)C(O)C(O)C1O)[C@H](O)[C@H](O)CCCCC (some centres unmarked) [OCH]	did not observe overt differences	fewer	mild (1 for mild presence of apoptosis (0-15% per follicle))							significantly reduced	significant reduction	significantly lower	higher
